Source: patent US9296728B2, “Therapeutic compounds” (Regents of the University of Minnesota, priority 2012, dated 2016)

Experiments:
[1] = molecular target: MCT1 (Rattus norvegicus (Rat), UniProt P53987); assay: Test A. MCT1 inhibition via lactate uptake in rat brain endothelial (RBE4) cells; assay type: cell-based; settings: 14C-lactate uptake
Method: Test A. MCT1 Inhibition Via Lactate Uptake Rat Brain Endothelial Cells
The entire lactate uptake studies for the inhibition of MCT1 were carried out on RBE4 (Rat Brain Endothelial 4) cells. The expression of MCT1 on these cells was confirmed by Western Blotting. The cells were plated approximately 20-24 hours before the experiment, the number of cells being approximately 10^5 cells per well. The test compounds were dissolved in DMSO and diluted 1000 times using a solution of HEPES buffer (pH 7.43) which consists of 3 μM ^14C-Lactate and 2 μM L-Lactate. The cells were washed twice with 500 μL of HEPES buffer and the cells were allowed to equilibrate for 15 minutes at 37° C. The HEPES buffer was removed and 250 μL of the test sample was added in triplicates. This was repeated for all the compounds, including the controls (CHC and DMSO). After 15 minutes, the compounds were removed from the well and 500 μL of ice-cold stop buffer (0.1 mM CHC solution in HEPES buffer) was added. The plate was kept on ice. Now, the HEPES buffer in one triplicate was removed and DMSO solution was added and immediately removed and ice-cold stop buffer was added. This was considered as “Zero”. One triplicate was left blank, which was used for protein assay after lysing the cells. The cells were washed twice with ice-cold HEPES buffer and then 250 μL of 0.1M NaOH in 5% Triton-X solution was added and the plate is kept on a shaker for 40 minutes to lyse the cells. 150 μL of the lysed cells was added into 4 mL of the scintillation fluid in a scintillation vial and scintillation count was obtained in disintegrations per minute (dpm). The percent inhibition values were calculated by taking DMSO as minimum. Concentration study (usually 9-12 dilutions) was done to determine the IC50 of each compound.

[2] = Toxicity study in healthy ICR mice (body weight, WBC, RBC); assay type: in vivo; settings: for RBC ± SEM / WBC ± SEM: end of day 22
Method: 60 ICR mice weighing ˜27 grams were randomly assigned into 5 groups (12 animals, 6 male and 6 female per group), one group being the control group without any drug administration (food only). The drugs were administered twice daily by P.O. or I.P. Group 1 and 3 were administered orally with 50 mg/Kg of Compound 20 and 18 mg/Kg of Compound 14 respectively. Group 2 and 4 mice were injected intraperitoneally with 6.67 mg/Kg of Compound 20 and 5.3 mg/Kg of Compound 14 (dissolved in water) respectively. The body weights of mice were recorded daily for 22 days. At the end of the 22nd day, 3 mice were randomly selected from each group and their blood samples were collected for detailed analysis of white blood cell (WBC) and red blood cell (RBC) counts. The mice were then euthanized with CO2.

[3] = Toxicity study in BALB/c nude mice containing WiDr colorectal adenocarcinoma xenograft (body weight); assay type: in vivo; settings: BALB/c nude mice with WiDr xenograft, 8 mg/kg i.p. twice daily
Method: Female BALB/c nude mice weighing ˜20 g were taken and 5.0 10^6 WiDr cancer cells were implanted into their right flanks with a 1:1 mixture of 0.1 mL PBS and matrigel. The tumor was allowed to grow to a size of ˜150 cubic millimeters (14 days). The mice were randomly chosen by chance and assigned into 5 groups (6 mice per group), one group being the control group to which tumor was allowed to grow without any drug administration (food only). The drugs were administered twice daily by P.O. or I.P. Group 1 mice were administered orally with 50 mg/kg of Compound 20. Groups 2, 3 and 4 mice were treated via IP with 10 mg/kg Compound 20, 8 mg/kg of Compound 14 and 238 mg/kg CHC respectively. Body weight changes were recorded every two days for 3 weeks.

MCT1, sequence (P53987 whole entry): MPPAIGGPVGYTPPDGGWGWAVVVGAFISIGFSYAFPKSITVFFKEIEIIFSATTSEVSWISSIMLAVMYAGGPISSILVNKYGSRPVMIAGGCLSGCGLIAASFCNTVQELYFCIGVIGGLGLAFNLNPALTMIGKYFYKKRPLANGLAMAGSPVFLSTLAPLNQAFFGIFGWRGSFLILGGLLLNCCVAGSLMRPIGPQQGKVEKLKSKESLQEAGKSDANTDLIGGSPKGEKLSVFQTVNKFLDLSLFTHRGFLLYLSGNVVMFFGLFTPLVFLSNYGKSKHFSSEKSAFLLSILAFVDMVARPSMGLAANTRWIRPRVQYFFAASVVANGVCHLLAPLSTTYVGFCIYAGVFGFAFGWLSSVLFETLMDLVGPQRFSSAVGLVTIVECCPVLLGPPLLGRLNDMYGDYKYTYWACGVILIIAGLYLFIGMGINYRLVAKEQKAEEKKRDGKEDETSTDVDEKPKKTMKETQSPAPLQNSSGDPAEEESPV
MCT1, sequence (P26453 141-388 partner): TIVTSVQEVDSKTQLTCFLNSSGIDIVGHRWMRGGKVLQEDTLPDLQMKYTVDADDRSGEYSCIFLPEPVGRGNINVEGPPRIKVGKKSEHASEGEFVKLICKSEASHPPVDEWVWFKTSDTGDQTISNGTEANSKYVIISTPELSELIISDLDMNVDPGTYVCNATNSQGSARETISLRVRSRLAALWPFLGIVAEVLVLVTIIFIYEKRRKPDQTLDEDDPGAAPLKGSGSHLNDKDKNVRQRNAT

| SMILES | IC50 [1] | other results |
| --- | --- | --- |
| CCCN(CCC)c1ccc2cc(C(=O)O)c(=O)oc2c1 [Compound 22] | 0.299 µM | – |
| O=C(O)c1cc2ccc(N3CCCC3)cc2oc1=O [Compound 26] | 0.22 µM | – |
| C#CCN(CC#C)c1ccc2cc(C(=O)O)c(=O)oc2c1 [Compound 24] | 0.15 µM | – |
| C#CCN(CC#C)c1ccc(/C=C(\C#N)C(=O)O)c(OC)c1 [Compound 17] | 0.091 µM | – |
| N#C/C(=C\c1ccc(N2CCCCC2)cc1)C(=O)O [Compound 12] | 0.11 µM | – |
| O=C(O)c1cc2ccc(N(Cc3ccc(Cl)cc3)Cc3ccc(Cl)cc3)cc2oc1=O [Compound 28] | 0.92 µM | – |
| O=C(O)c1cc2ccc(N(Cc3ccccc3)Cc3ccccc3)cc2oc1=O [Compound 25] | 0.048 µM | – |
| C=CCN(CC=C)c1ccc(/C=C(\C#N)C(=O)O)cc1 [Compound 7] | 0.088 µM | – |
| CCCCCN(CCCCC)c1ccc(/C=C(\C#N)C(=O)O)cc1 [Compound 5] | 0.12 µM | – |
| CCCCCCN(CCCCCC)c1ccc(/C=C(\C#N)C(=O)O)cc1 [Compound 6] | 0.95 µM | – |
| O=C(O)c1cc2ccc(N(Cc3ccc4c(c3)OCO4)Cc3ccc4c(c3)OCO4)cc2oc1=O [Compound 29] | 0.11 µM | – |
| O=C(O)c1cc2ccc(N(Cc3ccc(F)cc3)Cc3ccc(F)cc3)cc2oc1=O [Compound 27] | 0.2 µM | – |
| C=CCN(CC=C)c1ccc2cc(C(=O)O)c(=O)oc2c1 [Compound 23] | 0.25 µM | – |
| C#CCN(CC#C)c1ccc(/C=C(\C#N)C(=O)O)cc1 [Compound 8] | 0.34 µM | – |

Second part, led by results:

| IC50 [1] | SMILES | other results |
| --- | --- | --- |
| 0.023 µM | CCCCCN(CCCCC)c1ccc(/C=C(\C#N)C(=O)O)c(OC)c1 [Compound 15] | – |
| 0.059 µM | COc1cc(N2CCCC2)ccc1/C=C(\C#N)C(=O)O [Compound 21] | – |
| 0.025 µM | C=CCN(CC=C)c1ccc(/C=C(\C#N)C(=O)O)c(OC)c1 [Compound 16] | – |
| 0.043 µM | N#C/C(=C\c1ccc(N(Cc2ccccc2)Cc2ccccc2)cc1)C(=O)O [Compound 10] | – |
| 0.0095 µM | CCCN(CCC)c1ccc(/C=C(\C#N)C(=O)O)c(OC)c1 [Compound 13] | – |
| 0.015 µM | COc1cc(N(CC(C)C)CC(C)C)ccc1/C=C(\C#N)C(=O)O [Compound 18] | – |
| 0.0076 µM | CCCCN(CCCC)c1ccc(/C=C(\C#N)C(=O)O)c(OC)c1 [Compound 14] | Weight in grams (Day 0) ([2]; 5.3 mg/kg i.p. twice daily): 27.05 grams; Weight in grams (Day 22) ([2]; 5.3 mg/kg i.p. twice daily): 32.53 grams; RBC ± SEM ([2]; 5.3 mg/kg i.p. twice daily): 1.58 ± 0.05 10^13/L; WBC ± SEM ([2]; 5.3 mg/kg i.p. twice daily): 5.80 ± 0.72 10^10/L; Weight in grams (Day 0) ([2]; 18 mg/kg p.o. twice daily): 27.04 grams; Weight in grams (Day 22) ([2]; 18 mg/kg p.o. twice daily): 32.60 grams; RBC ± SEM ([2]; 18 mg/kg p.o. twice daily): 1.58 ± 0.02 10^13/L; WBC ± SEM ([2]; 18 mg/kg p.o. twice daily): 4.57 ± 0.49 10^10/L; Weight in grams (Day 0) ([3]; Day 0): 22.08 grams; Weight in grams (Day 22) ([3]; Day 22): 23.50 grams |
| 0.064 µM | N#C/C(=C\c1ccc(N2CCCC2)cc1)C(=O)O [Compound 11] | – |
| 0.019 µM | COc1cc(N(Cc2ccccc2)Cc2ccccc2)ccc1/C=C(\C#N)C(=O)O [Compound 19] | – |
| 0.066 µM | CC(C)CN(CC(C)C)c1ccc(/C=C(\C#N)C(=O)O)cc1 [Compound 9] | – |
| 0.026 µM | CCCCN(CCCC)c1ccc(/C=C(\C#N)C(=O)O)cc1 [Compound 4] | – |
